Where two headings read alike, the source gives them in different places.

Assay [1] concerns HCT116 MTAP null cells. Description: HCT116 MTAP null cell line proliferation (CellTiter-Glo cell viability, 6 days). It is filed as cell-based. The conditions noted are these: read-out: HCT-116 MTAP null IC50. In short, it runs like this: (§1)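 Isogenic HCT116 pair (both MTAP alleles knocked out vs parent) in RPMI 1640 + 10% FBS, seeded overnight at 37° C, 5% CO2, then exposed 6 days to 8- or 9-point 1:3 dilutions from 1 or 10 μM. CellTiter-Glo luminescence; IC50 from sigmoidal fit, Hill slope fixed −1, top 100%, or 4-parameter logistic.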

The subject of assay [2] is HCT116 WT cells. Description: HCT116 WT cell line proliferation (CellTiter-Glo cell viability, 6 days). Type of assay: cell-based. The conditions noted are these: read-out: HCT-116 WT IC50. In short, it runs like this: as §1
In general terms: In ATP-based viability assays light output follows the ATP content of the culture.

Setting [3] is: HCT116-MTAP null, 144 h, HCT116 MTAP null cells, 6 days of treatment, CellTiter-Glo cell viability.
The mark [4] stands for this setting: Homo sapiens, HCT-116, 144 h, HCT116 WT (parent) cells, 6 days of treatment, CellTiter-Glo cell viability.
The mark [5] stands for this setting: HCT116 MTAP null cells, 6 days of treatment, CellTiter-Glo cell viability.
The mark [6] stands for this setting: HCT116 WT (parent) cells, 6 days of treatment, CellTiter-Glo cell viability.

One may read the IC50 as the midpoint of a concentration-inhibition curve. As to `C[C@@H]1COC[C@H](c2ccc(OCCC(F)(F)F)nn2)N1C(=O)c1cc2c3c(c(N)nc2cn1)COC3` [Example 564, (4-amino-1,3-dihydrofuro[3,4-c][1,7]naphthyridin-8-yl)((3R,5S)-3-methyl-5-(6-(3,3,3-trifluoropropoxy)-3-pyridazinyl)-4-morpholinyl)methanone], the IC50 in assay [1] (setting [3]) is 28 nM; in assay [2] (setting [4]), 708 nM.

As for `C[C@@H]1COC[C@H](c2ccc(OCCC(F)(F)F)nn2)N1C(=O)c1cc2c3c(c(N)nc2cc1F)[C@@H](C)OC3` [Example 565, ((3R)-4-amino-7-fluoro-3-methyl-1,3-dihydrofuro[3,4-c]quinolin-8-yl)((3R,5S)-3-methyl-5-(6-(3,3,3-trifluoropropoxy)-3-pyridazinyl)-4-morpholinyl)methanone], the concentration for half-maximal inhibition (IC50) in assay [1] (setting [3]) was determined as 6 nM; in assay [2] (setting [4]) it was 72 nM.

Take `Nc1nc2cnc(C(=O)N3CC[S+]([O-])C[C@@H]3c3ccc(C(F)(F)F)cc3)cc2c2c1COC2` (stereo partly drawn) [Example 623, (4-Amino-1,3-dihydrofuro[3,4-c][1,7]naphthyridin-8-yl)((3S)-1-oxido-3-(4-(trifluoromethyl)phenyl)thiomorpholino)methanone]: the IC50 in assay [1] (HCT116-MTAP null, 144 h) was found to be 843 nM; in assay [2] (Homo sapiens, HCT-116, 144 h) it was 25700 nM.

On to `CC(=O)N1CCN(C(=O)c2cc3c4c(c(N)nc3cn2)COC4)[C@@H](c2ccc(C(F)(F)F)cc2)C1` [Example 624, (S)-1-(4-(4-Amino-1,3-dihydrofuro[3,4-c][1,7]naphthyridine-8-carbonyl)-3-(4-(trifluoromethyl)phenyl)piperazin-1-yl)ethan-1-one], for which the figures for the IC50 in assay [1] (setting [3]) and in assay [2] (setting [4]) were 343 nM and 8570 nM, respectively.

Take `Nc1nc2ccc(C(=S)N3CCOC[C@@H]3c3ccc(C(F)(F)F)cc3)cc2c2c1COC2` [Example 625, (S)-(4-amino-1,3-dihydrofuro[3,4-c]quinolin-8-yl)(3-(4-(trifluoromethyl)phenyl)morpholino)methanethione]: the values for the IC50 in assay [1] (setting [3]) and in assay [2] (setting [4]) were 882 nM and 7260 nM, respectively.

Take `Nc1nc2cnc(C(=S)N3CCOC[C@@H]3c3ccc(C(F)(F)F)cc3)cc2c2c1COC2` [Example 626, (4-amino-1,3-dihydrofuro[3,4-c][1,7]naphthyridin-8-yl)((3S)-3-(4-(trifluoromethyl)phenyl)-4-morpholinyl)methanethione]: the results for the half-maximal inhibitory concentration (IC50) in assay [1] (setting [3]) and in assay [2] (setting [4]) were 394 nM and 12900 nM, respectively.

For “(4-amino-1-methyl-1H- pyrazolo[4,3- c][1,7]naphthyridin-8- yl)((3R)-3-(4- (trifluoromethyl)benzyl)-1- pyrrolidinyl)methanone and (4-amino-1-methyl-1H- pyrazolo[4,3- c][1,7]naphthyridin-8- yl)((3S)-3-(4- (trifluoromethyl)benzyl)-1- pyrrolidinyl)methanone [Example 432]”, the IC50 was 616 nM in assay [1] (setting [5]) and 22700 nM in assay [2] (setting [6]).

In the case of “(4-amino-1-methyl-1H- pyrazolo[4,3- c][1,7]naphthyridin-8- yl)((3R)-3-(4- (trifluoromethyl)phenoxy)-1- pyrrolidinyl)methanone and (4-amino-1-methyl-1H- pyrazolo[4,3- c][1,7]naphthyridin-8- yl)((3S)-3-(4- (trifluoromethyl)phenoxy)-1- pyrrolidinyl)methanone [Example 433]”, the IC50 in assay [1] (setting [5]) is 421 nM; in assay [2] (setting [6]) it was 14600 nM.

“(4-amino-7-chloro-1,3- dihydrofuro[3,4-c]quinolin-8- yl)((3R,4S)-3-ethyl-4-(4- methylphenyl)-1- pyrrolidinyl)methanone and (4-amino-7-chloro-1,3- dihydrofuro[3,4-c]quinolin-8- yl)((3S,4R)-3-ethyl-4-(4- methylphenyl)-1- pyrrolidinyl)methanone [Example 424]”: the IC50 in assay [1] (setting [5]) is 345 nM; in assay [2] (setting [6]), 5690 nM.

For the compound “(4-amino-7-fluoro-1,3- dihydrofuro[3,4-c]quinolin-8- yl)((3R)-3-hydroxy-3-(4- (trifluoromethyl)phenyl)-1- pyrrolidinyl)methanone and (4-amino-7-fluoro-1,3- dihydrofuro[3,4-c]quinolin-8- yl)((3S)-3-hydroxy-3-(4- (trifluoromethyl)phenyl)-1- pyrrolidinyl)methanone [Example 441]”, the IC50 in assay [1] (setting [5]) was determined as 683 nM; in assay [2] (setting [6]), 15600 nM.

In the case of “(4-amino-7-fluoro-1-methyl- 1H-pyrazolo[4,3-c]quinolin- 8-yl)((4R)-3,3-dimethyl-4-(4- (trifluoromethyl)phenyl)-1- pyrrolidinyl)methanone and (4-amino-7-fluoro-1-methyl- 1H-pyrazolo[4,3-c]quinolin- 8-yl)((4S)-3,3-dimethyl-4-(4- (trifluoromethyl)phenyl)-1- pyrrolidinyl)methanone [Example 445]”, the IC50 in assay [1] (setting [5]) stood at 11 nM; in assay [2] (setting [6]) it was 240 nM.

Values taken from patent publication US11845760B2, “PRMT5 inhibitors” (AMGEN INC., priority 2020, dated 2023).
